Among the data in US20110313156A1 (BOEHRINGER INGELHEIM INTERNATIONAL GMBH, priority 2008, published 2011) are remaining activity values, retold here.

The target in this assay is T1, His6-PDK1 (aa 52-556) (Homo sapiens, UniProt O15530).
T1 construct: 15 μL His6-PDK1 (aa 52-556) 3.33 ng/well); host or cells: baculovirus-infected insect cells
T1 sequence (O15530 52-556): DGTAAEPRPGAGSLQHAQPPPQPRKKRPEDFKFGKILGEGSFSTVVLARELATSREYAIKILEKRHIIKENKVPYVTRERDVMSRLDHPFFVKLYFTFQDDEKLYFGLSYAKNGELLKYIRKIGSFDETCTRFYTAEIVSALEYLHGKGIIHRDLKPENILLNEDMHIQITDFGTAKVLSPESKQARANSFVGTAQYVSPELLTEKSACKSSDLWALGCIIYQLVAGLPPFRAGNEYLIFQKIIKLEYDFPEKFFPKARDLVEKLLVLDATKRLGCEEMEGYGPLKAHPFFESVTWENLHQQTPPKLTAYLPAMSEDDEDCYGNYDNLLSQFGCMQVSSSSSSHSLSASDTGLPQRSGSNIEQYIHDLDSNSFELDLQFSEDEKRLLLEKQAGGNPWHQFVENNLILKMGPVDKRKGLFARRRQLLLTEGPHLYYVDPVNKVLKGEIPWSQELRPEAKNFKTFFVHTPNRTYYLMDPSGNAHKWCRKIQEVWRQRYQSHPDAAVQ
Briefly: PDK1 kinase assay III (with Tween 20). The format is biochemical. The note with it: compound at 10 μM; PDK1 kinase assay III (values without asterisk); read-out: % CTL (residual activity of the enzyme relative to DMSO control). On the procedure:
Purified enzyme may be obtained for example from the University of Dundee, Scotland.
Another PDK1 assay was developed which by comparison with PDK1 assay 1 additionally contains Tween 20:
The final concentration of Tween 20 is 0.005%.
The reaction is started by adding the ATP solution and the mixture is incubated for 90 min at ambient temperature; at the start of the reaction the dishes are shaken gently. The reaction is stopped by the addition of 50 μL/well of 500 mM phosphoric acid (H3PO4) and incubated for about 20 min at ambient temperature. […] The measured data are evaluated using Graphpad Prism software.
The % CTL values indicate the residual activity of the enzyme after the addition of the inhibitory compound in the solvent DMSO in relation to the enzyme activity in the solvent DMSO without the addition of a compound (control). The majority of the values were determined using the PDK1 kinase assay III described hereinbefore. The values marked with an asterisk (* or**) were determined using the PDK1 kinase assay II described hereinbefore (one asterisk→incubation for 24 h; two asterisks→incubation for 5 min)

In the case of `COCCN(C)C(=O)c1ccc(Nc2ncc3cc(C#CCNC(=O)c4cncn(Cc5ccc(F)c(F)c5)c4=O)ccc3n2)cc1`, the remaining activity at 10 µM came out at 12.2%.
`Cc1c(C(=O)NCC#Cc2ccc3nc(Nc4ccc(C(=O)NC5CCN(C)CC5)c(Cl)c4)ncc3c2)c(=O)n(Cc2ccc(F)c(F)c2)n1C`: the remaining activity at 10 µM was determined as 16.1%.
`Cc1c(C(=O)NCC#Cc2ccc3nc(Nc4ccc(C(=O)NC5CCN(C)CC5)cc4)ncc3c2)c(=O)n(Cc2ccc(F)c(F)c2)n1C`: the remaining activity at 10 µM was 11.6%.
Regarding `Cc1c(C(=O)NCC#Cc2ccc3nc(Nc4ccc(N(C)C)cc4)ncc3c2)c(=O)n(Cc2ccc(F)c(F)c2)n1C`, the remaining activity at 10 µM worked out at 14.3%.
Under `COc1ccc(Nc2ncc3cc(C#CCNC(=O)c4c(C)n(C)n(Cc5ccc(F)c(F)c5)c4=O)ccc3n2)cc1` stands 14.7%.
To `Cc1c(C(=O)NCC#Cc2ccc3nc(Nc4ccc(C(=O)N(C)C5CCN(C)CC5)cc4)ncc3c2)c(=O)n(Cc2ccc(F)c(F)c2)n1C` belongs 12.4%.
For `COc1cc(Nc2ncc3cc(C#CCNC(=O)c4c(C)n(C)n(Cc5ccc(F)c(F)c5)c4=O)ccc3n2)ccc1C(=O)NC1CCN(C)CC1`, the remaining activity at 10 µM was 15%.
In the case of `Cc1c(C(=O)NCC#Cc2ccc3nc(Nc4ccc(C(=O)NC5CCN(C)CC5)c(F)c4)ncc3c2)c(=O)n(Cc2ccc(F)c(F)c2)n1C`, the remaining activity at 10 µM came out at 11%.
As to `CCN1CCC(NC(=O)c2ccc(Nc3ncc4cc(C#CCNC(=O)c5c(C)n(C)n(Cc6ccc(F)c(F)c6)c5=O)ccc4n3)cc2)CC1`, the remaining activity at 10 µM came to 13.7%.
As to `Cc1c(C(=O)NCC#Cc2ccc3nc(Nc4ccc(C(=O)NC5CCN(C6CC6)CC5)cc4)ncc3c2)c(=O)n(Cc2ccc(F)c(F)c2)n1C`, the remaining activity at 10 µM stood at 11.6%.
Consider `COCCN(C)C(=O)c1ccc(Nc2ncc3cc(C#CCNC(=O)c4c(C)n(C)n(Cc5ccc(F)c(F)c5)c4=O)ccc3n2)cc1`, for which the remaining activity at 10 µM amounted to 17.2%.
Regarding `COCCNC(=O)c1ccc(Nc2ncc3cc(C#CCNC(=O)c4c(C)n(C)n(Cc5ccc(F)c(F)c5)c4=O)ccc3n2)cc1`, the remaining activity at 10 µM is 20.1%.
With `Cc1c(C#CCNC(=O)c2c(C)n(C)n(Cc3ccc(F)c(F)c3)c2=O)ccc2nc(Nc3ccccc3)ncc12`, the remaining activity at 10 µM came to 12.4%.
On to `Cc1c(C(=O)NCC#Cc2ccc3nc(Nc4ccccc4F)ncc3c2)c(=O)n(Cc2ccc(F)c(F)c2)n1C`, for which the remaining activity at 10 µM is 17.1%.
With `Cc1c(C(=O)NCC#Cc2ccc3nc(NC(C)C)ncc3c2)c(=O)n(Cc2ccc(F)c(F)c2)n1C`, the remaining activity at 10 µM is 24.4%.
`Cc1c(C(=O)NCC#Cc2ccc3nc(NC4CCOCC4)ncc3c2)c(=O)n(Cc2ccc(F)c(F)c2)n1C`: the remaining activity at 10 µM stood at 25%.
With `Cc1c(C(=O)NCC#Cc2ccc3nc(NC4CCC4)ncc3c2)c(=O)n(Cc2ccc(F)c(F)c2)n1C`, the remaining activity at 10 µM turned out to be 12.3%.
As to `CCNc1ncc2cc(C#CCNC(=O)c3cncn(Cc4ccc(F)c(F)c4)c3=O)ccc2n1`, the remaining activity at 10 µM was 17.6%.
`CNc1ncc2cc(C#CCNC(=O)c3c(C)n(C)n(Cc4ccc(F)c(F)c4)c3=O)ccc2n1`: the remaining activity at 10 µM was 14.9%.
On to `Cc1c(C(=O)NCC#Cc2ccc3nc(Nc4ccc(C(=O)NC5CCC(C)CC5)cc4)ncc3c2)c(=O)n(Cc2ccc(F)c(F)c2)n1C` (stereo not drawn), for which the remaining activity at 10 µM came out at 20.8%.
Under `Cc1c(C(=O)NCC#Cc2ccc3nc(Nc4ccc(C(=O)NCCN(C)C)cc4)ncc3c2)c(=O)n(Cc2ccc(F)c(F)c2)n1C` stands 10.8%; under `Cc1c(C(=O)NCC#Cc2ccc3nc(Nc4ccc(C(=O)NCCCN(C)C)cc4)ncc3c2)c(=O)n(Cc2ccc(F)c(F)c2)n1C`, 13.1%.
Under `Cc1c(C(=O)NCC#Cc2ccc3nc(Nc4ccc(C(=O)N(C)CCO)cc4)ncc3c2)c(=O)n(Cc2ccc(F)c(F)c2)n1C` stands 14.4%; under `COCCCNC(=O)c1ccc(Nc2ncc3cc(C#CCNC(=O)c4c(C)n(C)n(Cc5ccc(F)c(F)c5)c4=O)ccc3n2)cc1`, 12.1%; under `Cc1c(C(=O)NCC#Cc2ccc3nc(Nc4ccc(C(=O)NCCCO)cc4)ncc3c2)c(=O)n(Cc2ccc(F)c(F)c2)n1C`, 15.2%.
Under `COCCCN(C)C(=O)c1ccc(Nc2ncc3cc(C#CCNC(=O)c4c(C)n(C)n(Cc5ccc(F)c(F)c5)c4=O)ccc3n2)cc1` stands 16%.
On to `Cc1c(C(=O)NCC#Cc2ccc3nc(Nc4ccc(C(=O)N(C)CCCO)cc4)ncc3c2)c(=O)n(Cc2ccc(F)c(F)c2)n1C`, for which the remaining activity at 10 µM came to 23.2%.
For `CC1CCC(NC(=O)c2ccc(Nc3ncc4cc(C#CCNC(=O)c5cncn(Cc6ccc(F)c(F)c6)c5=O)ccc4n3)cc2)CC1` (stereo not drawn), the remaining activity at 10 µM was found to be 19.7%.
To `CN(C)CCNC(=O)c1ccc(Nc2ncc3cc(C#CCNC(=O)c4cncn(Cc5ccc(F)c(F)c5)c4=O)ccc3n2)cc1` belongs 18.5%.
For the compound `CN(C)CCCNC(=O)c1ccc(Nc2ncc3cc(C#CCNC(=O)c4cncn(Cc5ccc(F)c(F)c5)c4=O)ccc3n2)cc1`, the remaining activity at 10 µM was 18.3%.
Turning to `CCNc1ncc2cc(/C=C/CNC(=O)c3cncn(Cc4ccc(F)c(F)c4)c3=O)ccc2n1`, the remaining activity at 10 µM was 23.5%.
For `O=C(NC/C=C/c1ccc2nc(NC3CC3)ncc2c1)c1cncn(Cc2ccc(F)c(F)c2)c1=O`, the remaining activity at 10 µM was 17%.
For `COc1ccc(Nc2ncc3cc(/C=C/CNC(=O)c4cncn(Cc5ccc(F)c(F)c5)c4=O)ccc3n2)cc1`, the remaining activity at 10 µM came out at 13.8%.
Regarding `COC(=O)c1ccc(Nc2ncc3cc(/C=C/CNC(=O)c4cncn(Cc5ccc(F)c(F)c5)c4=O)ccc3n2)cc1Cl`, the remaining activity at 10 µM worked out at 22.5%.
Take `Cc1c(C(=O)NC/C=C/c2ccc3nc(N)ncc3c2)c(=O)n(Cc2ccc(F)c(F)c2)n1C`: the remaining activity at 10 µM is 23%.
On to `CNc1ncc2cc(/C=C/CNC(=O)c3cncn(Cc4ccc(F)c(F)c4)c3=O)ccc2n1`, for which the remaining activity at 10 µM worked out at 21.7%.
For the compound `Cc1c(C(=O)NC/C=C/c2ccc3nc(Nc4ccc(C(=O)NCCCN(C)C)cc4)ncc3c2)c(=O)n(Cc2ccc(F)c(F)c2)n1C`, the remaining activity at 10 µM was 16.9%.
`Cc1ncc(C(=O)NC/C=C/c2ccc3nc(Nc4ccc(CN(C)C)cc4)ncc3c2)c(=O)n1Cc1ccc(F)c(F)c1`: the remaining activity at 10 µM worked out at 13.8%.
In the case of `COC(=O)c1ccc(Nc2ncc3cc(/C=C/CNC(=O)c4c(C)n(C)n(Cc5ccc(F)c(F)c5)c4=O)ccc3n2)cc1`, the remaining activity at 10 µM was determined as 20.7%.
Regarding `Cc1c(C(=O)NC/C=C/c2ccc3nc(Nc4ccc(C(=O)N(C)C5CCN(C)CC5)c(F)c4)ncc3c2)c(=O)n(Cc2ccc(F)c(F)c2)n1C`, the remaining activity at 10 µM was 13.7%.
Turning to `Cc1c(C(=O)NC/C=C/c2ccc3nc(Nc4ccc(C(=O)NC5CCN(C)CC5)c(F)c4)ncc3c2)c(=O)n(Cc2ccc(F)c(F)c2)n1C`, the remaining activity at 10 µM stood at 18.1%.
Regarding `COc1cc(Nc2ncc3cc(/C=C/CNC(=O)c4cncn(Cc5ccc(F)c(F)c5)c4=O)ccc3n2)ccc1C(=O)NC1CCN(C)CC1`, the remaining activity at 10 µM is 29%.
As for `COc1cc(Nc2ncc3cc(/C=C/CNC(=O)c4c(C)n(C)n(Cc5ccc(F)c(F)c5)c4=O)ccc3n2)ccc1C(=O)NC1CCN(C)CC1`, the remaining activity at 10 µM turned out to be 10.2%.
Under `CN1CCC(NC(=O)c2ccc(Nc3ncc4cc(/C=C/CNC(=O)c5cncn(Cc6ccc(F)c(F)c6)c5=O)ccc4n3)cc2Cl)CC1` stands 22.4%; under `Cc1c(C(=O)NC/C=C/c2ccc3nc(Nc4ccc(C(=O)NC5CCN(C)CC5)c(Cl)c4)ncc3c2)c(=O)n(Cc2ccc(F)c(F)c2)n1C`, 14.4%.
